Legend:
Experiment in all cases: KINOMEscan competition binding
Conditions in all cases: compound 10.0 µM
ACVR2A (human) = ACVR2A (human) (UniProt P27037)
AKT3 (human) = AKT3 (human) (UniProt Q9Y243)
BMX (human) = BMX (human) (UniProt P51813)
BRAF (human) = BRAF (human) (UniProt P15056)
CAMK1G (human) = CAMK1G (human) (UniProt Q96NX5)
CAMK2G (human) = CAMK2G (human) (UniProt Q13555)
CAMKK2 (human) = CAMKK2 (human) (UniProt Q96RR4)
CDC42BPG (human) = CDC42BPG (human) (UniProt Q6DT37)
CIT (human) = CIT (human) (UniProt O14578)
CLK4 (human) = CLK4 (human) (UniProt Q9HAZ1)
CSK (human) = CSK (human) (UniProt P41240)
DCLK1 (human) = DCLK1 (human) (UniProt O15075)
[1] = tested on: EIF2AK4 KD2 (human), Q9P2K8 [S808G]
FLT1 (human) = FLT1 (human) (UniProt P17948)
[2] = tested on: FLT3 (human), P36888 [N841I]
HIPK4 (human) = HIPK4 (human) (UniProt Q8NE63)
IKBKB (human) = IKBKB (human) (UniProt O14920)
IRAK3 (human) = IRAK3 (human) (UniProt Q9Y616)
[3] = target: JAK2 JH1 catalytic (human) (UniProt O60674)
[4] = tested on: KIT (human), P10721 [D816V]
LCK (human) = LCK (human) (UniProt P06239)
LTK (human) = LTK (human) (UniProt P29376)
MAPK12 (human) = MAPK12 (human) (UniProt P53778)
MAPK9 (human) = MAPK9 (human) (UniProt P45984)
MAPKAPK2 (human) = MAPKAPK2 (human) (UniProt P49137)
MERTK (human) = MERTK (human) (UniProt Q12866)
MST1R (human) = MST1R (human) (UniProt Q04912)
NUAK2 (human) = NUAK2 (human) (UniProt Q9H093)
OXSR1 (human) = OXSR1 (human) (UniProt O95747)
PAK6 (human) = PAK6 (human) (UniProt Q9NQU5)
PHKG1 (human) = PHKG1 (human) (UniProt Q16816)
PLK4 (human) = PLK4 (human) (UniProt O00444)
PRKAA2 (human) = PRKAA2 (human) (UniProt P54646)
PRKACA (human) = PRKACA (human) (UniProt P17612)
[5] = tested on: RET (human), P07949 [V804M]
RIPK4 (human) = RIPK4 (human) (UniProt P57078)
RPS6KA2 KD1 (human) = RPS6KA2 KD1 (human) (UniProt Q15349)
SRC (human) = SRC (human) (UniProt P12931)
STK10 (human) = STK10 (human) (UniProt O94804)
STK32C (human) = STK32C (human) (UniProt Q86UX6)
SYK (human) = SYK (human) (UniProt P43405)
ZAP70 (human) = ZAP70 (human) (UniProt P43403)

Sequence of CSK (human) (P41240 whole entry, looked up): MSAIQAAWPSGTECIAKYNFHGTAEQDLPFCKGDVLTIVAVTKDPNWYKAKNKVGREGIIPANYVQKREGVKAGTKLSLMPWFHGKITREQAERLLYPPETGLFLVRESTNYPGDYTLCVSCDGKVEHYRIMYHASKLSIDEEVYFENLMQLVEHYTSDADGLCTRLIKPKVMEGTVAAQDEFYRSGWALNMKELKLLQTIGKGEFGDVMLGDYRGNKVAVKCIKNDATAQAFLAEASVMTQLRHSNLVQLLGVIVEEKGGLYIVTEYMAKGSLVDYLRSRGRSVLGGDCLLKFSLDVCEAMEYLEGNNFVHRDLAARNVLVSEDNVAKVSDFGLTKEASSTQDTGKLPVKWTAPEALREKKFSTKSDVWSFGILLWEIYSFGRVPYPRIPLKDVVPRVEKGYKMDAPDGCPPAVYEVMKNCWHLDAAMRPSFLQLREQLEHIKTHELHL
Sequence of NUAK2 (human) (Q9H093 whole entry, looked up): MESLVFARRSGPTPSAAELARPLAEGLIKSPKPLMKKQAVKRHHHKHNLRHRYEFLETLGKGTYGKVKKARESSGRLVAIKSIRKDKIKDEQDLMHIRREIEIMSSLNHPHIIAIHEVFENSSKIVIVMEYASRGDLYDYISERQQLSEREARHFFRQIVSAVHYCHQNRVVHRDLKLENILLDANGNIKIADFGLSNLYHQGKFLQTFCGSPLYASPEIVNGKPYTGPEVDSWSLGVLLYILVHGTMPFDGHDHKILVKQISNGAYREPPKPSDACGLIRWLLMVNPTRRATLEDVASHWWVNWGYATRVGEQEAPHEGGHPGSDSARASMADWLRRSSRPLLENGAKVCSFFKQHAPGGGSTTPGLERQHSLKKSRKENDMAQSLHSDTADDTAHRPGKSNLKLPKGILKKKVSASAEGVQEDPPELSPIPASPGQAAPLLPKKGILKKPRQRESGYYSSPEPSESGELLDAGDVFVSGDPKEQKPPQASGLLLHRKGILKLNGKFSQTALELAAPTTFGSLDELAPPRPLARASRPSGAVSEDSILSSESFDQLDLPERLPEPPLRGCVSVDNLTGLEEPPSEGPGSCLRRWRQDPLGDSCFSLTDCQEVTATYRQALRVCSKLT
Sequence of BRAF (human) (P15056 whole entry, looked up): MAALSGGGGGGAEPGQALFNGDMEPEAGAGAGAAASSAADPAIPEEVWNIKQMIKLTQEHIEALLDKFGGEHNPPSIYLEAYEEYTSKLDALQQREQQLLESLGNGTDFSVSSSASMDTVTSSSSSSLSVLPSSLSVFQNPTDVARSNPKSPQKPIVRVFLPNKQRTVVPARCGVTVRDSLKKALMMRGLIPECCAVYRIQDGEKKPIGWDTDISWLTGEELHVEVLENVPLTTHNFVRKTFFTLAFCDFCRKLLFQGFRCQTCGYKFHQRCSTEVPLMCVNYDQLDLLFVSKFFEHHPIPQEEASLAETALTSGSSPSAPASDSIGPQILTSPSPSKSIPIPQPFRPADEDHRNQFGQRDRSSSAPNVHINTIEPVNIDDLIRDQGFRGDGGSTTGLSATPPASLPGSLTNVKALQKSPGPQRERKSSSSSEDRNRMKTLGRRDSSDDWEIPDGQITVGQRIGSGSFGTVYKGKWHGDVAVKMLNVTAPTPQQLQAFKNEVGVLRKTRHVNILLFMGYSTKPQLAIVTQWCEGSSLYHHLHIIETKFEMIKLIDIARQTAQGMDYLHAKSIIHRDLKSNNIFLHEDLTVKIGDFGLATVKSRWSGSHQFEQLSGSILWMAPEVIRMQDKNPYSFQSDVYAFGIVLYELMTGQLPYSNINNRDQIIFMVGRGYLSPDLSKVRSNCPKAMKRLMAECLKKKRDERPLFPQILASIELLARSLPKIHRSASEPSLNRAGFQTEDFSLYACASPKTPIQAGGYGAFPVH
Sequence of PAK6 (human) (Q9NQU5 whole entry, looked up): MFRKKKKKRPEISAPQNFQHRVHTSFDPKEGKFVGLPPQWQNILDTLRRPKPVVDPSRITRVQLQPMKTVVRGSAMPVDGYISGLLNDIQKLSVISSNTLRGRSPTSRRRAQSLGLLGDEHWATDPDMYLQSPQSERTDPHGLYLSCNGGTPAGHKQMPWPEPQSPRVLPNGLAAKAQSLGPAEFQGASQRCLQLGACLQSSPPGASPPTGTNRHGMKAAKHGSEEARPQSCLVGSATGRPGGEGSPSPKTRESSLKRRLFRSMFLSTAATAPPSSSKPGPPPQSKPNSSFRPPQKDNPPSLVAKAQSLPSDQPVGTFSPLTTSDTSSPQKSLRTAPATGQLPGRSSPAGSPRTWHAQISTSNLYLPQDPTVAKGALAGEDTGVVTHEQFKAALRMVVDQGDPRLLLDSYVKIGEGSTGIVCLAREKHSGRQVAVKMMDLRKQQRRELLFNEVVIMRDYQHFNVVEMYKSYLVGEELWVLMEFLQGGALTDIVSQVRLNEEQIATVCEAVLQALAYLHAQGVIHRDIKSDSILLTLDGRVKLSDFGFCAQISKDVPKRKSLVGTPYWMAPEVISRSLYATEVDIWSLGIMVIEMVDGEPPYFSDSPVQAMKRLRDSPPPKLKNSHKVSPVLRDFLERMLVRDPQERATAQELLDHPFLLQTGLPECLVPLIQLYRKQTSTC
Sequence of STK10 (human) (O94804 whole entry, looked up): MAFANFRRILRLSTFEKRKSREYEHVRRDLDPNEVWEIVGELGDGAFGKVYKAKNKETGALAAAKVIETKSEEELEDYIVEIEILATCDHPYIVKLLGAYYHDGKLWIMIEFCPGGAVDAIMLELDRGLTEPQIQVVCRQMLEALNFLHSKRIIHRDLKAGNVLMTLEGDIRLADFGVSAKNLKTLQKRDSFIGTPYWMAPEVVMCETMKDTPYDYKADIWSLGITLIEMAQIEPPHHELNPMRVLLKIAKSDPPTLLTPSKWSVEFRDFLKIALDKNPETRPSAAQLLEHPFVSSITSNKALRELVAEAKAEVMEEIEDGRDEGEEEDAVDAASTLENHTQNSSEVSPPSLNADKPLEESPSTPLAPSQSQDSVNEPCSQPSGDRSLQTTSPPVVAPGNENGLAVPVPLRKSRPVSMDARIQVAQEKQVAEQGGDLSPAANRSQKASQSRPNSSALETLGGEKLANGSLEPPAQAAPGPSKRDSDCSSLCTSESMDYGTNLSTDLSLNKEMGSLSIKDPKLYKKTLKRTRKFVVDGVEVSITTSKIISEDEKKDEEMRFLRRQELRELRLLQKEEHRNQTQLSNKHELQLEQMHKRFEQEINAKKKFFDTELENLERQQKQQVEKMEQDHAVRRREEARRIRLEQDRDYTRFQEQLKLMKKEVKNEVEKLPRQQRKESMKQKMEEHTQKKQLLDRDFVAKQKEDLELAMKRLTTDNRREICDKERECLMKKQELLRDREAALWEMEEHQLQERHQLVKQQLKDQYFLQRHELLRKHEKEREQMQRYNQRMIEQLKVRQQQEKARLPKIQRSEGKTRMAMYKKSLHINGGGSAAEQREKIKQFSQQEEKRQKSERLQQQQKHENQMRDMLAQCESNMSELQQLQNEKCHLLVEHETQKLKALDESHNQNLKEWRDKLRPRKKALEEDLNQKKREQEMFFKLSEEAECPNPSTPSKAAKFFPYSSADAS
Sequence of PLK4 (human) (O00444 whole entry, looked up): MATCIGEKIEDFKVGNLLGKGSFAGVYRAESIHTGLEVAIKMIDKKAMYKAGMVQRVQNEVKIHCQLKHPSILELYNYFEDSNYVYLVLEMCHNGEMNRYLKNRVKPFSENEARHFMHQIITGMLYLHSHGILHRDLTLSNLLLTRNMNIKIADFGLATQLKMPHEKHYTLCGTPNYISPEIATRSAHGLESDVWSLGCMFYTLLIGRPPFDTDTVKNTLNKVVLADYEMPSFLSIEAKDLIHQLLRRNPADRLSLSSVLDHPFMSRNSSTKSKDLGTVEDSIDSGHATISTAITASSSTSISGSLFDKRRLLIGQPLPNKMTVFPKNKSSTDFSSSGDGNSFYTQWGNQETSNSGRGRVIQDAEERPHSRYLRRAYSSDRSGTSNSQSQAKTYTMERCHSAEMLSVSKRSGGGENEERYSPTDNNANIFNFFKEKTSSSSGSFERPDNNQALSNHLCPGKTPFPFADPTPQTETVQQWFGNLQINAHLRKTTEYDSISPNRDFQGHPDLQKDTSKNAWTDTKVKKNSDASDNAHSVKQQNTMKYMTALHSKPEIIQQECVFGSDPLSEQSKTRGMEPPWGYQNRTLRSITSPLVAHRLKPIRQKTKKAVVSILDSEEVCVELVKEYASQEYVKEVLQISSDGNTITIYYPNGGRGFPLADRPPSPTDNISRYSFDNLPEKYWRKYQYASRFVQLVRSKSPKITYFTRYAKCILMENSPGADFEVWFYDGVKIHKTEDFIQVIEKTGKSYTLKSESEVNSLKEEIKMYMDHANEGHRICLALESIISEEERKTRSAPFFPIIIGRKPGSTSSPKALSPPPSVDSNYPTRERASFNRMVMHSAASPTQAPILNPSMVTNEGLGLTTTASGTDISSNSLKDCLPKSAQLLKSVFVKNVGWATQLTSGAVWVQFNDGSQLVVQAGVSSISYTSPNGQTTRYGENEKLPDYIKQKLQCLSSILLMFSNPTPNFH
Sequence of MAPK12 (human) (P53778 whole entry, looked up): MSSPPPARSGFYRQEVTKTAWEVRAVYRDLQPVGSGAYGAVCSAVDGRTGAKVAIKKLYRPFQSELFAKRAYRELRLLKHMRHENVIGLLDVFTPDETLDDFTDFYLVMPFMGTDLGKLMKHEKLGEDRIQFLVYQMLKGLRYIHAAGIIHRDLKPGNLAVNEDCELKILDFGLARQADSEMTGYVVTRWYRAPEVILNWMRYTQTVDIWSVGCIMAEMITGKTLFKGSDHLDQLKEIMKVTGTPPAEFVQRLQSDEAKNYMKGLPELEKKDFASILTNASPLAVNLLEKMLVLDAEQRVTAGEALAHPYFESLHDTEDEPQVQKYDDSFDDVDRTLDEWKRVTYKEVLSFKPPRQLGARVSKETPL

Cc1cc([C@@H](C)Nc2ccccc2C(=O)O)c2nc(N3CCOCC3)cc(=O)n2c1
kinase still bound, per cent of control (ACVR2A (human)): 95% | kinase still bound, per cent of control (AKT3 (human)): 80% | kinase still bound, per cent of control (BMX (human)): 82% | kinase still bound, per cent of control (BRAF (human)): 74% | kinase still bound, per cent of control (CAMK1G (human)): 100% | kinase still bound, per cent of control (CAMK2G (human)): 87% | kinase still bound, per cent of control (CAMKK2 (human)): 72% | kinase still bound, per cent of control (CDC42BPG (human)): 99% | kinase still bound, per cent of control (CIT (human)): 88% | kinase still bound, per cent of control (CLK4 (human)): 100% | kinase still bound, per cent of control (CSK (human)): 98% | kinase still bound, per cent of control (DCLK1 (human)): 100% | kinase still bound, per cent of control [1]: 78% | kinase still bound, per cent of control (FLT1 (human)): 96% | kinase still bound, per cent of control [2]: 26% | kinase still bound, per cent of control (HIPK4 (human)): 56% | kinase still bound, per cent of control (IKBKB (human)): 95% | kinase still bound, per cent of control (IRAK3 (human)): 75% | kinase still bound, per cent of control [3]: 71% | kinase still bound, per cent of control [4]: 100% | kinase still bound, per cent of control (LCK (human)): 81% | kinase still bound, per cent of control (LTK (human)): 61% | kinase still bound, per cent of control (MAPK12 (human)): 82% | kinase still bound, per cent of control (MAPK9 (human)): 69% | kinase still bound, per cent of control (MAPKAPK2 (human)): 95% | kinase still bound, per cent of control (MERTK (human)): 100% | kinase still bound, per cent of control (MST1R (human)): 96% | kinase still bound, per cent of control (NUAK2 (human)): 100% | kinase still bound, per cent of control (OXSR1 (human)): 80% | kinase still bound, per cent of control (PAK6 (human)): 96% | kinase still bound, per cent of control (PHKG1 (human)): 100% | kinase still bound, per cent of control (PLK4 (human)): 100% | kinase still bound, per cent of control (PRKAA2 (human)): 91% | kinase still bound, per cent of control (PRKACA (human)): 100% | kinase still bound, per cent of control [5]: 99% | kinase still bound, per cent of control (RIPK4 (human)): 87% | kinase still bound, per cent of control (RPS6KA2 KD1 (human)): 100% | kinase still bound, per cent of control (SRC (human)): 100% | kinase still bound, per cent of control (STK10 (human)): 71% | kinase still bound, per cent of control (STK32C (human)): 89% | kinase still bound, per cent of control (SYK (human)): 90% | kinase still bound, per cent of control (ZAP70 (human)): 72%

Source: the kinase profiling compilation of Christmann-Franck et al. (2016)
